{
  "source": "patent US20110033376A1",
  "about": "“Treatment of Melanoma” (priority 2007, published 2011)",
  "key": {"[1]": {"system": "A375 melanoma cells", "assay": "Apo-ONE Homogeneous Caspase-3/7 assay (induction of apoptosis)", "assay_type": "cell-based, human", "conditions": "A375, 24 hours incubation", "description": "(§1) 3 human melanoma cell lines (A375, G-361, WM266-4) were maintained in RPMI 1640 culture medium (Sigma, UK) containing 10% (v/v) heat inactivated foetal bovine serum (Sigma, UK) and 2 mM […] at 37° C. in 5% humidified CO2. Cells were harvested, washed, re-suspended into growth medium and counted (Beckman-Coulter Vi-CELL XR). Cells were plated onto the middle 240 wells of 384 tissue culture plates at 1.6×10^5 to 2.4×10^5 cells/ml in 12.5 μl/well aliquots. 50 μl of growth media was aliquoted into the outer wells. 2 plates were prepared per cell line. Plates were incubated overnight at 37° C., in 5% humidified CO2.\n(§2) Dexanabinol was prepared in growth medium at 2 times the final assay concentration at 125, 31.3, 7.81, 2.00, 0.49, 0.12, 0.031 and 0.008 μM (DMSO concentration was kept constant across the dilution range at 0.5%).\n(§3) Cisplatin was used as a positive control. The final assays concentrations were 10, 2.5, 0.63, 0.156, 0.039, 0.010, 0.002 and 0.0006 μg/ml. […] 12.5 μl of growth media was added to the media control wells. The plates were incubated for 24 hours at 37° C., in 5% humidified CO2.\n(§4) Caspase 3/7 levels were assessed by Apo-ONE© Homogeneous Caspase-3/7 assay kit. Fluorescence was measured using a FlexStation© II^384 plate reader at 1, 2, 3 and 4 hours after addition of the caspase substrate. The 4 hour readings were used for analysis."}, "[2]": {"system": "G-361 melanoma cells", "assay": "Apo-ONE Homogeneous Caspase-3/7 assay (induction of apoptosis)", "assay_type": "cell-based, human", "conditions": "G-361, 24 hours incubation", "description": "as §1, §2, §3, §4"}, "[3]": {"system": "WM266-4 melanoma cells", "assay": "Apo-ONE Homogeneous Caspase-3/7 assay (induction of apoptosis)", "assay_type": "cell-based, human", "conditions": "WM266-4, 24 hours incubation; for EC50: caspase 3/7", "description": "as §1, §2, §3, §4"}, "[4]": {"system": "A375 melanoma cells", "assay": "CellTiter-Blue cell viability assay", "assay_type": "cell-based, human", "conditions": "A375, 24 hours incubation; for IC50: CellTiter-Blue", "description": "as §1, §2, §3\n(§5) The cell viability assay was performed in parallel on the same plate for each line using CellTiter-Blue© (Promega) reagent. Briefly, 25 μl of CellTiter-Blue© (Promega) reagent was added to each well. The plates were shaken for 1 minute at 500 rpm and then incubated at 37° C., 5% CO2 for 4 hours."}, "[5]": {"system": "G-361 melanoma cells", "assay": "CellTiter-Blue cell viability assay", "assay_type": "cell-based, human", "conditions": "G-361, 24 hours incubation; for IC50: CellTiter-Blue", "description": "as §1, §2, §3, §5"}, "[6]": {"system": "WM266-4 melanoma cells", "assay": "CellTiter-Blue cell viability assay", "assay_type": "cell-based, human", "conditions": "WM266-4, 24 hours incubation; for IC50: CellTiter-Blue", "description": "as §1, §2, §3, §5"}, "[7]": {"system": "A375 melanoma cells", "assay": "Sulforhodamine B (SRB) growth inhibition assay", "assay_type": "cell-based, human", "description": "(§6) The ability of dexanabinol to inhibit melanoma cell growth was also studied in 3 melanoma cell lines (A375, UACC62, Malme-3M) using the Sulforhodamine B (SRB) assay.\n(§7) Sterile solutions of the final concentrations of dexanabinol were prepared (0.001 μM to 100 μM in 0.5% DMSO).\n(§8) The cells were incubated with drug concentrations in 0.5% DMSO (100 μl total volume per well) at 37° C. in 5% CO2 for 5 days. Control wells contained cells plus 0.5% DMSO plus medium.\n(§9) The SRB growth inhibition assay was conducted over 24 and 5 day exposure periods. Following exposure, the cells were fixed, stained with SRB and read on a SpectorMax® 250 microplate spectrophotometer system plate reader."}, "[8]": {"system": "UACC62 melanoma cells", "assay": "Sulforhodamine B (SRB) growth inhibition assay", "assay_type": "cell-based, human", "conditions": "UACC62, 5-day exposure", "description": "as §6, §7, §8, §9"}, "[9]": {"system": "Malme-3M melanoma cells", "assay": "Sulforhodamine B (SRB) growth inhibition assay", "assay_type": "cell-based", "conditions": "Homo sapiens, 120 h, 5-day exposure", "description": "as §6, §7, §8, §9"}, "[10]": {"system": "A375 melanoma cells", "assay": "Clonogenic assay, time-course effect on cell proliferation", "assay_type": "cell-based, human", "conditions": "A375, 1 hour vs 24 hours exposure", "description": "The time-course effect of dexanabinol on cell proliferation in one melanoma cell line, A375, was examined using the clonogenic assay method.\nA375 cells were harvested from the growing cell culture and counted. Cells were diluted to 1.0×10^5/ml and seeded 2 ml/well to 6 well plates.\nThe cells were incubated overnight at 37° C. in humidified incubator 95% air+5% CO2.\nThe cells were treated with dexanabinol at 4 doses up to 20 μM at 3 exposure periods (1 hour, 6 hours and 24 hours).\nAfter each exposure period, the cells were harvested from the wells by washing twice with PBS then adding 0.2 ml of single strength trypsin to each well and incubating at 37° C. until the cells detached. Cell suspensions were counted at 1/10 dilution and then diluted to 1/10, 1/100, 1/1000.\n10 cm dishes (containing 7 ml fresh medium) were seeded with 3 different cell densities for dexanabinol treatment and control treatment. When colonies of suitable size formed in the control dishes, dishes were fixed, stained and counted.\nPercentage survival in the dexanabinol treated A375 cells was calculated using the following equation: […]"}, "[11]": {"assay": "Preliminary pharmacokinetic (PK) and maximum tolerated dose (MTD) study", "assay_type": "in vivo, CD1 A375 tumour-bearing mice", "conditions": "CD1 mice", "description": "(§10) Having established that dexanabinol inhibited melanoma cell proliferation in vitro, we then sought to establish whether the compound was active in vivo. A preliminary pharmacokinetic (PK) and maximum tolerated dose (MTD) study was carried out to determine whether therapeutically effective dose levels of dexanabinol could be achieved in CD1 A375 tumour-bearing mice. […] On the basis of this, a single-dose efficacy study was undertaken. Dexanabinol was diluted in a vehicle of 10% Cremophor/Ethanol (1:1 v/v) in saline. Control mice received vehicle alone."}, "[12]": {"system": "A375 human tumour xenograft", "assay": "Single-dose efficacy study, human melanoma cell xenograft growth", "assay_type": "in vivo", "conditions": "single dose 100 mg/kg i.v., CD1 nude mice bearing A375 xenograft", "description": "as §10\n10 mice received 100 mg/kg i.v. dexanabinol. 10 mice received Vehicle (10 ml/kg) Mice were implanted with 1×10^7 A375 human melanoma cells, in 50 μl of medium, on the flank. Once tumours were palpable (approx 5 mm×5 mm) 20 mice were treated with either dexanabinol or vehicle (as outlined above). […] Tumour size was measured 3 times a week after treatment. The treatment lasted 4 weeks"}, "[13]": {"system": "3 melanoma cell lines (A375, G-361, WM266-4)", "assay": "CellTiter-Blue cytotoxic response, summary over 3 melanoma cell lines", "assay_type": "cell-based", "conditions": "Homo sapiens, 24 h, read-out: IC50 of cytotoxic response", "description": "Cells were harvested, washed, re-suspended into growth medium and counted (Beckman-Coulter Vi-CELL XR). […] 50 μl of growth media was aliquoted into the outer wells. 2 plates were prepared per cell line. Plates were incubated overnight at 37° C., in 5% humidified CO2.\nThe final assays concentrations were 10, 2.5, 0.63, 0.156, 0.039, 0.010, 0.002 and 0.0006 μg/ml. […] 12.5 μl of growth media was added to the media control wells. The plates were incubated for 24 hours at 37° C., in 5% humidified CO2.\nThe plates were shaken for 1 minute at 500 rpm and then incubated at 37° C., 5% CO2 for 4 hours."}, "[14]": {"system": "human melanoma cell lines (A375, G-361, WM266-4)", "assay": "Caspase 3/7 apoptosis induction, summary over melanoma cell lines", "assay_type": "cell-based", "description": "as §1, §2, §3, §4"}, "[15]": {"system": "all tested human melanoma cell lines", "assay": "In vitro cell proliferation assays, summary over all tested lines", "assay_type": "cell-based", "description": "as §5, §6, §9"}},
  "data": [
    {"molecule": "N.N.[Cl][Pt][Cl]", "note": "[Cisplatin]", "values": [
      {"measurement": "Rank of apoptosis induction", "setting": "[1]", "value": "** (moderate apoptosis induction and decrease in proliferation (35-70%))"},
      {"measurement": "EC50", "setting": "[1]; caspase 3/7", "value": 5.67, "unit": "µM"},
      {"measurement": "Rank of apoptosis induction", "setting": "[2]", "value": "** (moderate apoptosis induction and decrease in proliferation (35-70%))"},
      {"measurement": "EC50", "setting": "[2]; caspase 3/7", "value": "33.3 to 100", "unit": "µM"},
      {"measurement": "Rank of apoptosis induction", "setting": "[3]", "value": "*** (good apoptosis induction and decrease in proliferation (>70%))"},
      {"measurement": "EC50", "setting": "[3]", "value": "33.3 to 100", "unit": "µM"},
      {"measurement": "Rank of decrease in proliferation (viability)", "setting": "[4]", "value": "** (moderate apoptosis induction and decrease in proliferation (35-70%))"},
      {"measurement": "IC50", "setting": "[4]", "value": 21.8, "unit": "µM"},
      {"measurement": "Rank of decrease in proliferation (viability)", "setting": "[5]", "value": "** (moderate apoptosis induction and decrease in proliferation (35-70%))"},
      {"measurement": "IC50", "setting": "[5]", "value": 18, "unit": "µM"},
      {"measurement": "Rank of decrease in proliferation (viability)", "setting": "[6]", "value": "* (weak apoptosis induction and decrease in proliferation (<35%))"},
      {"measurement": "IC50", "setting": "[6]", "value": 62, "unit": "µM"}
    ]},
    {"molecule": "CCCCCCC(C)(C)c1cc(O)c2c(c1)OC(C)(C)[C@H]1CC=C(CO)C[C@H]21", "note": "[Dexanabinol, 1,1 dimethyl heptyl-(3S,4S)-7-hydroxy-Δ^6-tetrahydrocannabinol]", "values": [
      {"measurement": "Rank of apoptosis induction", "setting": "[1]", "value": "ND*** (good apoptosis induction and decrease in proliferation (>70%))"},
      {"measurement": "Rank of apoptosis induction", "setting": "[2]", "value": "ND* (weak apoptosis induction and decrease in proliferation (<35%))"},
      {"measurement": "EC50", "setting": "[3]; Homo sapiens, WM 266-4", "value": 13, "unit": "µM"},
      {"measurement": "Rank of apoptosis induction", "setting": "[3]", "value": "*** (good apoptosis induction and decrease in proliferation (>70%))"},
      {"measurement": "Rank of decrease in proliferation (viability)", "setting": "[4]", "value": "** (moderate apoptosis induction and decrease in proliferation (35-70%))"},
      {"measurement": "IC50", "setting": "[4]; Homo sapiens, A-375", "value": 19.2, "unit": "µM"},
      {"measurement": "Rank of decrease in proliferation (viability)", "setting": "[5]", "value": "*** (good apoptosis induction and decrease in proliferation (>70%))"},
      {"measurement": "IC50", "setting": "[5]; Homo sapiens", "value": 11, "unit": "µM"},
      {"measurement": "IC50", "setting": "[6]; Homo sapiens, WM 266-4", "value": 20.9, "unit": "µM"},
      {"measurement": "Rank of decrease in proliferation (viability)", "setting": "[6]", "value": "** (moderate apoptosis induction and decrease in proliferation (35-70%))"},
      {"measurement": "GI50", "setting": "[7]; A375, 5-day exposure", "value": 14.4, "unit": "µM"},
      {"measurement": "GI50", "setting": "[7]; Homo sapiens, A-375, 24 h, A375, 24-hour exposure", "value": 14.3, "unit": "µM"},
      {"measurement": "GI50", "setting": "[7]; Homo sapiens, A-375, 120 h, A375, 5-day exposure", "value": 16.2, "unit": "µM"},
      {"measurement": "GI50", "setting": "[8]; Homo sapiens, UACC-62, 120 h", "value": 18.5, "unit": "µM"},
      {"measurement": "GI50", "setting": "[8]", "value": 18.1, "unit": "µM"},
      {"measurement": "GI50", "setting": "[9]", "value": 13.3, "unit": "µM"},
      {"measurement": "Time dependence of cell killing", "setting": "[10]", "value": "time-independent"},
      {"measurement": "Plasma concentration", "setting": "[11]; at the MTD, 100 mg/kg i.v. single dose", "value": 10, "unit": "µM"},
      {"measurement": "MTD", "setting": "[11]; mouse, in vivo, iv, i.v. single dose", "value": 100, "unit": "mg/kg"},
      {"measurement": "Effect on tumour xenograft growth", "setting": "[12]", "value": "growth delaying effect"},
      {"measurement": "IC50", "setting": "[13]", "value": "10 to 21", "unit": "µM"},
      {"measurement": "Concentration of peak response in apoptosis", "setting": "[14]; 24 hours incubation, response dropped at the highest concentration", "value": 2.5, "unit": "µM"},
      {"measurement": "Mode of cell death", "setting": "[14]; caspase 3/7", "value": "induced apoptotic cell death in a caspase 3/7 dependent manner"},
      {"measurement": "Mean concentration at which profoundly cytotoxic", "setting": "[15]; all tested human melanoma cell lines", "value": "~14"},
      {"measurement": "Drug concentrations at which in vitro anti-tumour effects were observed", "setting": "[15]; in vitro", "value": "10 to 20", "unit": "µM"}
    ]}
  ]
}
